Data published in US9107879B1, “Methods of increasing the cytotoxicity of chemotherapeutic agents with multisubstrate inhibitors of histone, protein-lys, polyamine acetylation, and polyamine metabolism” (Vanderbilt University, priority 2010, dated 2015).

System: H358 cells
Assay: nucleotide excision repair assay (thymidine dimer slot blot)
Type: cell-based
Conditions: 40 J/m2 UVC then 50 μM 1a; within 24 hours (untreated cells 50%)
Method: Also shown are controls for no treatment (“c” minus 1a) or treatment with 1a only (“c” plus 1a). Each lane represents 60 μg protein. […] Each lane represents 60 μg protein.
For NER, a slot blot immunoassay was used to detect the loss of thymidine dimers from the DNA of UVC treated cells as previously described. An antibody specific for cyclobutane pyrimidine dimers, the major photoproduct produced by UVC treatment, was purchased from Kamiya Biomedical Co(Seattle, Wash.; anti-thymidine dimer, clone KTM53) and used at 1:40 dilution.
DNA repair can promote cell survival following DNA damage. Nucleotide excision repair (NER), which requires histone acetylation (Cazzalini et al., 2008, 36: 1713-22) removes bulky DNA adducts such as the intrastrand guanine-adenine crosslinks caused by cisplatin or the intrastrand thymidine dimers produced by UVC radiation. We assayed NER in the presence or absence of 50 μM 1a using an immunoblot analysis of thymidine dimers in cellular DNA prepared from cells at fixed times after exposure to 40 J/m^2UVC radiation. […] The results support a model in which acetylation of the core histones, accompanied by localized relaxation of chromatin structure, may be necessary to initiate DNA repair, possibly by allowing access of DNA to multiprotein repair complex involved in nucleotide excision repair, or by promoting recruitment of those factors. […]

## CC(C)(COP(=O)(O)OP(=O)(O)OC[C@H]1O[C@@H](n2cnc3c(N)ncnc32)[C@H](O)[C@@H]1OP(=O)(O)O)[C@@H](O)C(=O)NCCC(=O)NCCSCC(=O)NCCCNCCCCN [1a, spermidine[N1]-CoA]
  decrease of thymidine dimers in DNA: 40%
